For data set [1], the system named is Trypanosoma cruzi. Briefly: Antiprotozoal activity against Trypanosoma cruzi BH infected in CFW mouse assessed as increase in host mean survival time at 100 mg/kg, po administered daily for 5 days starting 4 hrs post-parasite infection (reference value: 14 +/- 1 days). It counts as functional.
The test system of data set [2] is Trypanosoma cruzi. Description: Antiprotozoal activity against Trypanosoma cruzi BH infected in CFW mouse assessed as increase in host mean survival time at 100 mg/kg, ip administered daily for 5 days starting 4 hrs post-parasite infection (reference value: 14 +/- 1 days). It counts as functional. To be noted: route intraperitoneal.
In data set [3] the test system is Trypanosoma cruzi. Description: Antiprotozoal activity against Trypanosoma cruzi BH infected in CFW mouse assessed as increase in host mean survival time at 25 mg/kg, ip administered daily for 5 days starting 4 hrs post-parasite infection (reference value: 14 +/- 1 days). To be noted: route intraperitoneal. It counts as functional.
Data set [4] concerns Trypanosoma cruzi. Description: Antiprotozoal activity against Trypanosoma cruzi BH infected in CFW mouse assessed as increase in host mean survival time at 5 mg/kg, ip administered daily for 5 days starting 4 hrs post-parasite infection (reference value: 14 +/- 1 days). It counts as functional. The conditions noted are these: route intraperitoneal.
Data set [5] can be described thus: Acute toxicity in po dosed CFW mouse administered daily for 5 days. The class given is organism-based. The conditions noted are these: in vivo.
Data set [6] relates to Trypanosoma cruzi. Description: Antiprotozoal activity against Trypanosoma cruzi BH infected in CFW mouse assessed as increase in host mean survival time at 25 mg/kg, po administered daily for 5 days starting 4 hrs post-parasite infection (reference value: 14 +/- 1 days). It counts as functional.
Data set [7] deals with Trypanosoma cruzi. Briefly: Antiprotozoal activity against Trypanosoma cruzi BH infected in CFW mouse assessed as increase in host mean survival time at 50 mg/kg, ip administered daily for 5 days starting 4 hrs post-parasite infection (reference value: 14 +/- 1 days). The class given is functional. The conditions noted are these: route intraperitoneal.
The nature of data set [8]: Acute toxicity in ip dosed CFW mouse administered daily for 5 days. The class given is organism-based. To be noted: in vivo.
In data set [9] the test system is Trypanosoma cruzi. Description: Antiprotozoal activity against Trypanosoma cruzi BH infected in CFW mouse assessed as increase in host mean survival time at 50 mg/kg, po administered daily for 5 days starting 4 hrs post-parasite infection (reference value: 14 +/- 1 days). The class given is functional.
Data set [10] deals with Trypanosoma cruzi. Description: Antiprotozoal activity against Trypanosoma cruzi BH infected in CFW mouse assessed as increase in host mean survival time at 200 mg/kg, po administered daily for 5 days starting 4 hrs post-parasite infection (reference value: 14 +/- 1 days). It counts as functional.
In data set [11] the test system is Trypanosoma cruzi. Briefly: Antiprotozoal activity against Trypanosoma cruzi BH infected in CFW mouse assessed as increase in host mean survival time at 10 mg/kg, ip administered daily for 5 days starting 4 hrs post-parasite infection (reference value: 14 +/- 1 days). To be noted: route intraperitoneal. It counts as functional.
The test system of data set [12] is Trypanosoma cruzi. Description: Antiprotozoal activity against high myocardial tissue infiltration leishmanial form of Trypanosoma cruzi BHC/10 infected in CFW mouse assessed as increase in host mean survival time at 10 mg/kg, po administered daily for 10 days starting 4 hrs post-parasite infection. The class given is functional.
Data set [13] deals with Trypanosoma cruzi. Description: Antiprotozoal activity against Trypanosoma cruzi Peru infected in CFW mouse assessed as increase in host mean survival time at 5 mg/kg, po administered daily for 10 days starting 4 hrs post-parasite infection. The class given is functional.
The test system of data set [14] is Trypanosoma cruzi. Description: Antiprotozoal activity against high myocardial tissue infiltration leishmanial form of Trypanosoma cruzi BHC/10 infected in CFW mouse assessed as increase in host mean survival time at 25 mg/kg, po administered daily for 10 days starting 4 hrs post-parasite infection. It counts as functional.
Data set [15] concerns Trypanosoma cruzi. Description: Antiprotozoal activity against Trypanosoma cruzi Peru infected in CFW mouse assessed as increase in host mean survival time at 25 mg/kg, po administered daily for 10 days starting 4 hrs post-parasite infection. It counts as functional.
Data set [16] concerns Trypanosoma cruzi. Description: Antiprotozoal activity against high myocardial tissue infiltration leishmanial form of Trypanosoma cruzi BHC/10 infected in CFW mouse assessed as increase in host mean survival time at 5 mg/kg, po administered daily for 10 days starting 4 hrs post-parasite infection. The class given is functional.
The subject of data set [17] is Trypanosoma cruzi. Briefly: Antiprotozoal activity against Trypanosoma cruzi BH infected in CFW mouse assessed as increase in host mean survival time at 5 mg/kg, po administered daily for 5 days starting 4 hrs post-parasite infection (reference value: 14 +/- 1 days). The class given is functional.
For data set [18], the system named is Trypanosoma cruzi. Briefly: Antiprotozoal activity against Trypanosoma cruzi Y infected in CFW mouse assessed as increase in host mean survival time at 10 mg/kg, po administered daily for 10 days starting 4 hrs post-parasite infection. It counts as functional.
In data set [19] the test system is Trypanosoma cruzi. Briefly: Antiprotozoal activity against Trypanosoma cruzi Y infected in CFW mouse assessed as increase in host mean survival time at 5 mg/kg, po administered daily for 10 days starting 4 hrs post-parasite infection. It counts as functional.
In data set [20] the test system is Trypanosoma cruzi. Briefly: Antiprotozoal activity against Trypanosoma cruzi Peru infected in CFW mouse assessed as increase in host mean survival time at 10 mg/kg, po administered daily for 10 days starting 4 hrs post-parasite infection. It counts as functional.
Data set [21] has as its system Trypanosoma cruzi. Briefly: Antiprotozoal activity against Trypanosoma cruzi BH infected in CFW mouse assessed as increase in host mean survival time at 10 mg/kg, po administered daily for 5 days starting 4 hrs post-parasite infection (reference value: 14 +/- 1 days). It counts as functional.
The test system of data set [22] is Trypanosoma cruzi. Description: Antiprotozoal activity against Trypanosoma cruzi Y infected in CFW mouse assessed as increase in host mean survival time at 25 mg/kg, po administered daily for 10 days starting 4 hrs post-parasite infection. The class given is functional.

The text below walks through data of ChEMBL document CHEMBL3272125, “Antiprotozoal thiazoles. 2. 2-(5-Nitro-2-furyl-, thiazolyl-, and 1-methylimidazolyl-)thiazoles” (J Med Chem, 1977).

Molecules are shown by their SMILES.

On to `O=[N+]([O-])c1ccc(-c2nc(/C=N/N3CCCCC3)cs2)o1`, for which the MST came to 39 days in the data set with Trypanosoma cruzi [1]; 60 days in the data set on Trypanosoma cruzi [2]; 42 days with Trypanosoma cruzi [3]; 0 days with Trypanosoma cruzi [4]; 0 days with Trypanosoma cruzi [6]; 60 days in the data set on Trypanosoma cruzi [7]. In addition, the MST in the data set on Trypanosoma cruzi [9] was found to be 8 days; with Trypanosoma cruzi [10], 32 days; with Trypanosoma cruzi [11], 3 days. The 50% lethal dose (LD50) at 120 h is greater than 1600 mg/kg in [5] and greater than 800 mg/kg in data set [8].

Take `O=[N+]([O-])c1cnc(-c2nc(/C=N/N3CCSCC3)cs2)s1`: the MST in the data set with Trypanosoma cruzi [1] stood at 0 days; in the data set on Trypanosoma cruzi [2] it was 4 days; in the data set with Trypanosoma cruzi [3], 0 days; in the data set with Trypanosoma cruzi [7], 3 days; with Trypanosoma cruzi [10] it was 1 days. Moreover, the results for the LD50 at 120 h in data set [5] and in data set [8] were greater than 1600 mg/kg and greater than 800 mg/kg, respectively.

Turning to `CC1CS(=O)(=O)CCN1/N=C/c1ccc([N+](=O)[O-])o1` (stereo unspecified) [NIFURTIMOX], the MST stood at 60 days in the data set on Trypanosoma cruzi [1]; 5.5 days in the data set on Trypanosoma cruzi [12]; 0 days in the data set with Trypanosoma cruzi [13]; 6.5 days with Trypanosoma cruzi [14]; 60 days with Trypanosoma cruzi [15]; 60 days in the data set on Trypanosoma cruzi [2]. Besides, the MST was determined as 3 days with Trypanosoma cruzi [16]; 60 days in the data set on Trypanosoma cruzi [3]; 0 days in the data set with Trypanosoma cruzi [17]; 8 days in the data set on Trypanosoma cruzi [18]; 2.5 days with Trypanosoma cruzi [4]; 0 days in the data set with Trypanosoma cruzi [19]. For the same molecule, the MST in the data set with Trypanosoma cruzi [6] is 60 days; in the data set on Trypanosoma cruzi [7] it was 60 days; with Trypanosoma cruzi [20] it was 60 days; in the data set on Trypanosoma cruzi [21], 4 days; in the data set with Trypanosoma cruzi [22], 40 days; in the data set with Trypanosoma cruzi [9], 60 days. The MST in the data set on Trypanosoma cruzi [10] and in the data set on Trypanosoma cruzi [11] was 60 days throughout.

Turning to `O=[N+]([O-])c1ccc(-c2nc(/C=N/N3CCOCC3)cs2)s1`, the MST in the data set with Trypanosoma cruzi [1] was determined as 0 days; in the data set with Trypanosoma cruzi [2], 60 days; in the data set with Trypanosoma cruzi [3], 12 days; in the data set with Trypanosoma cruzi [17], 0 days; in the data set on Trypanosoma cruzi [4], 0 days; in the data set with Trypanosoma cruzi [6] it was 0 days. For the same molecule, the MST in the data set with Trypanosoma cruzi [7] was determined as 27 days; in the data set with Trypanosoma cruzi [21], 0 days; with Trypanosoma cruzi [9] it was 0 days; in the data set with Trypanosoma cruzi [10] it was 60 days; in the data set with Trypanosoma cruzi [11], 0 days. Further, the LD50 at 120 h is greater than 1600 mg/kg in data set [5] and greater than 800 mg/kg in [8].

With `O=[N+]([O-])c1cnc(-c2nc(/C=N/N3CCCCC3)cs2)s1`, the MST with Trypanosoma cruzi [2] and in the data set on Trypanosoma cruzi [10] was 0 days each time. In addition, the LD50 at 120 h in data set [5] was greater than 1600 mg/kg; in [8], greater than 800 mg/kg.

Turning to `O=[N+]([O-])c1cnc(-c2nc(/C=N/N3CCOCC3)cs2)s1`, the results for the MST with Trypanosoma cruzi [2] and in the data set with Trypanosoma cruzi [10] were 4 days and 0 days, respectively. The values for the LD50 at 120 h in data set [5] and in data set [8] were greater than 1600 mg/kg and greater than 800 mg/kg, respectively.

On to `O=[N+]([O-])c1ccc(-c2nc(/C=N/N3CCS(=O)(=O)CC3)cs2)o1`, for which the MST with Trypanosoma cruzi [1] is 3 days; with Trypanosoma cruzi [2], 60 days; in the data set on Trypanosoma cruzi [3], 18.5 days; in the data set with Trypanosoma cruzi [4], 0 days; with Trypanosoma cruzi [6], 6 days; in the data set with Trypanosoma cruzi [7], 44 days. Further, the MST in the data set on Trypanosoma cruzi [21] amounted to 0 days; in the data set with Trypanosoma cruzi [9], 7 days; in the data set with Trypanosoma cruzi [10] it was 5 days; with Trypanosoma cruzi [11], 5 days. For the same molecule, the LD50 at 120 h is greater than 1600 mg/kg in data set [5] and greater than 800 mg/kg in data set [8].

On to `O=[N+]([O-])c1ccc(-c2nc(/C=N/N3CCSCC3)cs2)o1`, for which the MST was found to be 4 days in the data set on Trypanosoma cruzi [1]; 60 days with Trypanosoma cruzi [2]; 18 days with Trypanosoma cruzi [3]; 0 days in the data set with Trypanosoma cruzi [4]; 60 days in the data set with Trypanosoma cruzi [7]; 0 days in the data set on Trypanosoma cruzi [9]. The MST in the data set with Trypanosoma cruzi [10] is 18 days; with Trypanosoma cruzi [11], 0 days. Also, the values for the LD50 at 120 h in data set [5] and in [8] were greater than 1600 mg/kg and greater than 800 mg/kg, respectively.

As for `O=[N+]([O-])c1ccc(-c2nc(/C=N/N3CCCCCC3)cs2)o1`, the MST in the data set with Trypanosoma cruzi [1] stood at 0 days; in the data set with Trypanosoma cruzi [2] it was 39 days; in the data set on Trypanosoma cruzi [3], 4 days; in the data set with Trypanosoma cruzi [7] it was 7 days; with Trypanosoma cruzi [10], 2 days. In addition, the LD50 at 120 h was greater than 1600 mg/kg in data set [5] and greater than 800 mg/kg in [8].

Take `Cn1c([N+](=O)[O-])cnc1-c1nc(/C=N/N2CCOCC2)cs1`: the MST in the data set on Trypanosoma cruzi [2] amounted to 60 days; in the data set on Trypanosoma cruzi [3], 4 days; with Trypanosoma cruzi [6], 0 days; in the data set with Trypanosoma cruzi [7], 7 days; with Trypanosoma cruzi [9], 0 days; with Trypanosoma cruzi [11], 0 days. The LD50 at 120 h in data set [5] was greater than 1600 mg/kg; in data set [8], greater than 800 mg/kg.

Take `O=[N+]([O-])c1ccc(-c2nc(/C=N/N3CCOCC3)cs2)o1`: the MST was 60 days in the data set on Trypanosoma cruzi [1]; 60 days with Trypanosoma cruzi [2]; 60 days with Trypanosoma cruzi [3]; 0 days in the data set on Trypanosoma cruzi [17]; 0 days with Trypanosoma cruzi [4]; 19.5 days in the data set on Trypanosoma cruzi [6]. Also, the MST was found to be 60 days in the data set on Trypanosoma cruzi [7]; 0 days in the data set on Trypanosoma cruzi [21]; 41 days in the data set on Trypanosoma cruzi [9]; 60 days in the data set with Trypanosoma cruzi [10]; 27 days with Trypanosoma cruzi [11]. For the same molecule, the values for the LD50 at 120 h in [5] and in data set [8] were greater than 1600 mg/kg and greater than 800 mg/kg, respectively.

For the molecule `Cn1c([N+](=O)[O-])cnc1-c1nc(/C=N/N2CCS(=O)(=O)CC2)cs1`, the MST in the data set with Trypanosoma cruzi [1] worked out at 60 days; with Trypanosoma cruzi [12], 12 days; in the data set on Trypanosoma cruzi [13] it was 35 days; with Trypanosoma cruzi [14] it was 22 days; in the data set with Trypanosoma cruzi [15], 60 days; in the data set with Trypanosoma cruzi [2], 60 days. The MST in the data set with Trypanosoma cruzi [16] was found to be 4 days; with Trypanosoma cruzi [3], 60 days; in the data set on Trypanosoma cruzi [17] it was 15 days; in the data set on Trypanosoma cruzi [18], 60 days; with Trypanosoma cruzi [4], 18.5 days; with Trypanosoma cruzi [19], 37 days. The MST in the data set with Trypanosoma cruzi [6] worked out at 60 days; in the data set on Trypanosoma cruzi [7] it was 60 days; in the data set on Trypanosoma cruzi [20], 60 days; in the data set on Trypanosoma cruzi [21], 14 days; in the data set with Trypanosoma cruzi [22], 60 days; in the data set on Trypanosoma cruzi [9] it was 60 days. The MST in the data set with Trypanosoma cruzi [10] and in the data set on Trypanosoma cruzi [11] was 60 days throughout. For the same molecule, the LD50 at 120 h is greater than 1600 mg/kg in data set [5] and greater than 800 mg/kg in [8].

The LD50 is the dose at which mortality reaches 50%.
